Key:
[1] = test system: patients with major depressive disorder; assay: Open-label trials of adjunctive agomelatine 25 mg at bedtime in MDD; baseline EEG models predicting change in MADRS; assay type: in vivo, human
[2] = test system: circadian rhythm; settings: in vivo; cited from earlier work
[3] = test system: unselected depression patients; settings: monotherapy, meta-analytically calculated; cited from earlier work
[4] = test system: performance on a trail making task; settings: versus an SSRI; cited from earlier work
[5] = test system: sleep measures; settings: cited from earlier work

## COc1ccc2cccc(CCNC(C)=O)c2c1 [agomelatine, N-[2-(7-methoxynaphthalen-1-yl)ethyl]acetamide]
[1]; EEG machine learning model
  prediction of agomelatine outcome by relative power: not predictive
[1]; EEG machine learning model, significant at week 4
  prediction of agomelatine outcome by aperiodic exponent: also predictive
[1]; EEG sample entropy machine learning model, cross-validation left-out data of training dataset, all weeks, FIG. 2A
  Cohen's d effect size, predicted responders vs predicted non-responders, change in MADRS: > 0.4
[1]; EEG sample entropy machine learning model, holdout dataset, weeks 4, 6 and 8, FIG. 2B
  Cohen's d, predicted agomelatine responders vs non-responders, observed change in MADRS: ≥ 0.4
[1]; EEG-predicted non-responders (sample entropy model), full sample
  implied agomelatine-placebo difference, d: −0.06
[1]; EEG-predicted responders (sample entropy model), week 8, full sample
  implied agomelatine-placebo response, d: 0.58
[1]; Pz low gamma sample entropy alone, high entropy patients, full sample
  implied agomelatine-placebo difference, d: 0.51
[1]; Pz low gamma sample entropy alone, low entropy patients, full sample
  implied agomelatine-placebo difference, d: 0.0
[1]; REC, Approximate Entropy, lower gamma, Week 1
  d (Cohen's d, prediction of agomelatine outcome): 0.23
[1]; REC, Approximate Entropy, lower gamma, Week 2
  d (Cohen's d, prediction of agomelatine outcome): 0.29
[1]; REC, Approximate Entropy, lower gamma, Week 4
  d (Cohen's d, prediction of agomelatine outcome): 0.46
[1]; REC, Detrended Fluctuation Analysis, lower beta, Week 1
  d (Cohen's d, prediction of agomelatine outcome): 0.49
[1]; REC, Detrended Fluctuation Analysis, lower beta, Week 2
  d (Cohen's d, prediction of agomelatine outcome): 0.44
[1]; REC, Detrended Fluctuation Analysis, lower beta, Week 4
  d (Cohen's d, prediction of agomelatine outcome): 0.41
[1]; REC, Detrended Fluctuation Analysis, upper beta, Week 1
  d (Cohen's d, prediction of agomelatine outcome): 0.19
[1]; REC, Detrended Fluctuation Analysis, upper beta, Week 2
  d (Cohen's d, prediction of agomelatine outcome): 0.20
[1]; REC, Detrended Fluctuation Analysis, upper beta, Week 4
  d (Cohen's d, prediction of agomelatine outcome): 0.25
[1]; REC, Higuchi Fractal Dimension, lower beta, Week 1
  d (Cohen's d, prediction of agomelatine outcome): 0.44
[1]; REC, Higuchi Fractal Dimension, lower beta, Week 2
  d (Cohen's d, prediction of agomelatine outcome): 0.36
[1]; REC, Higuchi Fractal Dimension, lower beta, Week 4
  d (Cohen's d, prediction of agomelatine outcome): 0.28
[1]; REC, Higuchi Fractal Dimension, lower gamma, Week 1
  d (Cohen's d, prediction of agomelatine outcome): 0.64
[1]; REC, Higuchi Fractal Dimension, lower gamma, Week 2
  d (Cohen's d, prediction of agomelatine outcome): 0.58
[1]; REC, Higuchi Fractal Dimension, lower gamma, Week 4
  d (Cohen's d, prediction of agomelatine outcome): 0.57
[1]; REC, Higuchi Fractal Dimension, upper beta, Week 1
  d (Cohen's d, prediction of agomelatine outcome): −0.29
[1]; REC, Higuchi Fractal Dimension, upper beta, Week 2
  d (Cohen's d, prediction of agomelatine outcome): −0.20
[1]; REC, Higuchi Fractal Dimension, upper beta, Week 4
  d (Cohen's d, prediction of agomelatine outcome): −0.05
[1]; REC, Higuchi Fractal Dimension, upper gamma, Week 1
  d (Cohen's d, prediction of agomelatine outcome): 0.16
[1]; REC, Higuchi Fractal Dimension, upper gamma, Week 2
  d (Cohen's d, prediction of agomelatine outcome): 0.16
[1]; REC, Higuchi Fractal Dimension, upper gamma, Week 4
  d (Cohen's d, prediction of agomelatine outcome): 0.21
[1]; REC, Katz Fractal Dimension, lower beta, Week 1
  d (Cohen's d, prediction of agomelatine outcome): 0.47
[1]; REC, Katz Fractal Dimension, lower beta, Week 2
  d (Cohen's d, prediction of agomelatine outcome): 0.42
[1]; REC, Katz Fractal Dimension, lower beta, Week 4
  d (Cohen's d, prediction of agomelatine outcome): 0.37
[1]; REC, Katz Fractal Dimension, lower gamma, Week 1
  d (Cohen's d, prediction of agomelatine outcome): 0.25
[1]; REC, Katz Fractal Dimension, lower gamma, Week 2
  d (Cohen's d, prediction of agomelatine outcome): 0.23
[1]; REC, Katz Fractal Dimension, lower gamma, Week 4
  d (Cohen's d, prediction of agomelatine outcome): 0.23
[1]; REC, Katz Fractal Dimension, upper beta, Week 1
  d (Cohen's d, prediction of agomelatine outcome): 0.42
[1]; REC, Katz Fractal Dimension, upper beta, Week 2
  d (Cohen's d, prediction of agomelatine outcome): 0.40
[1]; REC, Katz Fractal Dimension, upper beta, Week 4
  d (Cohen's d, prediction of agomelatine outcome): 0.42
[1]; REC, Katz Fractal Dimension, upper gamma, Week 1
  d (Cohen's d, prediction of agomelatine outcome): 0.04
[1]; REC, Katz Fractal Dimension, upper gamma, Week 2
  d (Cohen's d, prediction of agomelatine outcome): 0.10
[1]; REC, Katz Fractal Dimension, upper gamma, Week 4
  d (Cohen's d, prediction of agomelatine outcome): 0.23
[1]; REC, Largest Lyapunov Exponent, upper alpha, Week 1
  d (Cohen's d, prediction of agomelatine outcome): 0.10
[1]; REC, Largest Lyapunov Exponent, upper alpha, Week 2
  d (Cohen's d, prediction of agomelatine outcome): 0.12
[1]; REC, Largest Lyapunov Exponent, upper alpha, Week 4
  d (Cohen's d, prediction of agomelatine outcome): 0.18
[1]; REC, Largest Lyapunov Exponent, upper gamma, Week 1
  d (Cohen's d, prediction of agomelatine outcome): −0.02
[1]; REC, Largest Lyapunov Exponent, upper gamma, Week 2
  d (Cohen's d, prediction of agomelatine outcome): 0.08
[1]; REC, Largest Lyapunov Exponent, upper gamma, Week 4
  d (Cohen's d, prediction of agomelatine outcome): 0.29
[1]; REC, Lempel-Ziv Complexity, lower gamma, Week 1
  d (Cohen's d, prediction of agomelatine outcome): −0.06
[1]; REC, Lempel-Ziv Complexity, lower gamma, Week 2
  d (Cohen's d, prediction of agomelatine outcome): 0.01
[1]; REC, Lempel-Ziv Complexity, lower gamma, Week 4
  d (Cohen's d, prediction of agomelatine outcome): 0.15
[1]; REC, Lempel-Ziv Complexity, upper alpha, Week 1
  d (Cohen's d, prediction of agomelatine outcome): 0.21
[1]; REC, Lempel-Ziv Complexity, upper alpha, Week 2
  d (Cohen's d, prediction of agomelatine outcome): 0.17
[1]; REC, Lempel-Ziv Complexity, upper alpha, Week 4
  d (Cohen's d, prediction of agomelatine outcome): 0.13
[1]; REC, Modified Multiscale Entropy, lower alpha, Week 1
  d (Cohen's d, prediction of agomelatine outcome): 0.08
[1]; REC, Modified Multiscale Entropy, lower alpha, Week 2
  d (Cohen's d, prediction of agomelatine outcome): 0.11
[1]; REC, Modified Multiscale Entropy, lower alpha, Week 4
  d (Cohen's d, prediction of agomelatine outcome): 0.19
[1]; REC, Modified Multiscale Entropy, lower gamma, Week 1
  d (Cohen's d, prediction of agomelatine outcome): −0.09
[1]; REC, Modified Multiscale Entropy, lower gamma, Week 2
  d (Cohen's d, prediction of agomelatine outcome): 0.01
[1]; REC, Modified Multiscale Entropy, lower gamma, Week 4
  d (Cohen's d, prediction of agomelatine outcome): 0.21
[1]; REC, Modified Multiscale Entropy, upper alpha, Week 1
  d (Cohen's d, prediction of agomelatine outcome): 0.19
[1]; REC, Modified Multiscale Entropy, upper alpha, Week 2
  d (Cohen's d, prediction of agomelatine outcome): 0.25
[1]; REC, Modified Multiscale Entropy, upper alpha, Week 4
  d (Cohen's d, prediction of agomelatine outcome): 0.39
[1]; REC, Multiscale Entropy, upper alpha, Week 1
  d (Cohen's d, prediction of agomelatine outcome): 0.05
[1]; REO, Approximate Entropy, lower gamma, Week 1
  d (Cohen's d, prediction of agomelatine outcome): −0.15
[1]; REO, Approximate Entropy, lower gamma, Week 2
  d (Cohen's d, prediction of agomelatine outcome): −0.05
[1]; REO, Approximate Entropy, lower gamma, Week 4
  d (Cohen's d, prediction of agomelatine outcome): 0.09
[1]; REO, Detrended Fluctuation Analysis, upper gamma, Week 1
  d (Cohen's d, prediction of agomelatine outcome): 0.37
[1]; REO, Detrended Fluctuation Analysis, upper gamma, Week 2
  d (Cohen's d, prediction of agomelatine outcome): 0.33
[1]; REO, Detrended Fluctuation Analysis, upper gamma, Week 4
  d (Cohen's d, prediction of agomelatine outcome): 0.32
[1]; REO, Higuchi Fractal Dimension, delta, Week 1
  d (Cohen's d, prediction of agomelatine outcome): −0.15
[1]; REO, Higuchi Fractal Dimension, delta, Week 2
  d (Cohen's d, prediction of agomelatine outcome): −0.05
[1]; REO, Higuchi Fractal Dimension, delta, Week 4
  d (Cohen's d, prediction of agomelatine outcome): 0.12
[1]; REO, Higuchi Fractal Dimension, lower beta, Week 1
  d (Cohen's d, prediction of agomelatine outcome): 0.03
[1]; REO, Higuchi Fractal Dimension, lower beta, Week 2
  d (Cohen's d, prediction of agomelatine outcome): 0.03
[1]; REO, Higuchi Fractal Dimension, lower beta, Week 4
  d (Cohen's d, prediction of agomelatine outcome): 0.05
[1]; REO, Higuchi Fractal Dimension, upper gamma, Week 1
  d (Cohen's d, prediction of agomelatine outcome): 0.04
[1]; REO, Higuchi Fractal Dimension, upper gamma, Week 2
  d (Cohen's d, prediction of agomelatine outcome): 0.06
[1]; REO, Higuchi Fractal Dimension, upper gamma, Week 4
  d (Cohen's d, prediction of agomelatine outcome): 0.11
[1]; REO, Katz Fractal Dimension, delta, Week 1
  d (Cohen's d, prediction of agomelatine outcome): 0.04
[1]; REO, Katz Fractal Dimension, delta, Week 2
  d (Cohen's d, prediction of agomelatine outcome): 0.07
[1]; REO, Katz Fractal Dimension, delta, Week 4
  d (Cohen's d, prediction of agomelatine outcome): 0.13
[1]; REO, Katz Fractal Dimension, lower beta, Week 1
  d (Cohen's d, prediction of agomelatine outcome): 0.28
[1]; REO, Katz Fractal Dimension, lower beta, Week 2
  d (Cohen's d, prediction of agomelatine outcome): 0.18
[1]; REO, Katz Fractal Dimension, lower beta, Week 4
  d (Cohen's d, prediction of agomelatine outcome): 0.06
[1]; REO, Katz Fractal Dimension, upper beta, Week 1
  d (Cohen's d, prediction of agomelatine outcome): 0.24
[1]; REO, Katz Fractal Dimension, upper beta, Week 2
  d (Cohen's d, prediction of agomelatine outcome): 0.24
[1]; REO, Katz Fractal Dimension, upper beta, Week 4
  d (Cohen's d, prediction of agomelatine outcome): 0.29
[1]; REO, Largest Lyapunov Exponent, upper alpha, Week 1
  d (Cohen's d, prediction of agomelatine outcome): 0.03
[1]; REO, Largest Lyapunov Exponent, upper alpha, Week 2
  d (Cohen's d, prediction of agomelatine outcome): 0.08
[1]; REO, Largest Lyapunov Exponent, upper alpha, Week 4
  d (Cohen's d, prediction of agomelatine outcome): 0.17
[1]; REO, Largest Lyapunov Exponent, upper gamma, Week 1
  d (Cohen's d, prediction of agomelatine outcome): −0.24
[1]; REO, Largest Lyapunov Exponent, upper gamma, Week 2
  d (Cohen's d, prediction of agomelatine outcome): −0.11
[1]; REO, Largest Lyapunov Exponent, upper gamma, Week 4
  d (Cohen's d, prediction of agomelatine outcome): 0.08
[1]; REO, Lempel-Ziv Complexity, lower gamma, Week 1
  d (Cohen's d, prediction of agomelatine outcome): −0.24
[1]; REO, Lempel-Ziv Complexity, lower gamma, Week 2
  d (Cohen's d, prediction of agomelatine outcome): −0.13
[1]; REO, Lempel-Ziv Complexity, lower gamma, Week 4
  d (Cohen's d, prediction of agomelatine outcome): 0.02
[1]; REO, Lempel-Ziv Complexity, theta, Week 1
  d (Cohen's d, prediction of agomelatine outcome): 0.13
[1]; REO, Lempel-Ziv Complexity, theta, Week 2
  d (Cohen's d, prediction of agomelatine outcome): 0.14
[1]; REO, Lempel-Ziv Complexity, theta, Week 4
  d (Cohen's d, prediction of agomelatine outcome): 0.17
[1]; REO, Lempel-Ziv Complexity, upper beta, Week 1
  d (Cohen's d, prediction of agomelatine outcome): 0.19
[1]; REO, Lempel-Ziv Complexity, upper beta, Week 2
  d (Cohen's d, prediction of agomelatine outcome): 0.21
[1]; REO, Lempel-Ziv Complexity, upper beta, Week 4
  d (Cohen's d, prediction of agomelatine outcome): 0.30
[1]; REO, Modified Multiscale Entropy, upper beta, Week 1
  d (Cohen's d, prediction of agomelatine outcome): 0.08
[1]; REO, Modified Multiscale Entropy, upper beta, Week 2
  d (Cohen's d, prediction of agomelatine outcome): 0.15
[1]; REO, Modified Multiscale Entropy, upper beta, Week 4
  d (Cohen's d, prediction of agomelatine outcome): 0.31
[1]; REO, Multiscale Entropy, lower gamma, Week 1
  d (Cohen's d, prediction of agomelatine outcome): −0.41
[1]; REO, Multiscale Entropy, lower gamma, Week 2
  d (Cohen's d, prediction of agomelatine outcome): −0.21
[1]; REO, Multiscale Entropy, lower gamma, Week 4
  d (Cohen's d, prediction of agomelatine outcome): 0.05
[1]; high = z≥0.27, full study sample, all weeks, FIG. 2C
  MADRS change, high vs low Pz low-gamma sample entropy: strong and statistically significant prediction of treatment outcome across all weeks
[2]
  effect on circadian rhythm: phase advance circadian rhythm
[3]
  all-comer effect size d, treatment response to agomelatine versus placebo: 0.26
[4]
  performance on a trail making task: superior to an SSRI
[5]; in contrast to an SSRI
  sleep measures assessed using actigraphic measurements: improve sleep measures
[5]; in vivo
  deep to total sleep ratio: increasing the deep to total sleep ratio
